In patent publication US12729186B2, “Prodrugs for sustained releasing therapeutic agents and uses thereof” (LIANGJIANG MEDICINE CO., LTD., priority 2020, dated 2026):

Assay: Drug release assay (hydrolysis rate test in pH 7.4 / pH 2.0 buffer, HPLC)
Assay type: physicochemical
Settings: for Hydrolysis constant Kh pH 2.0 / Hydrolysis constant Kh pH 7.4: Kh=-ln[100%-Release rate (%)]/t; for Release rate (%) pH 2.0 (6 h): pH 2.0 buffer solution; for Release rate (%) pH 2.0 (6 h) / Release rate (%) pH 7.4 (0.5 h) / Release rate (%) pH 7.4 (6 h): 37° C., 200 rpm, residual content relative to 0 h by HPLC; for Release rate (%) pH 7.4 (0.5 h) / Release rate (%) pH 7.4 (6 h): pH 7.4 buffer solution
Experimental: Preparation of pH2.0 Buffer Solution
Preparation of pH7.4 Buffer Solution
Method of Hydrolysis Rate Test
The compounds were dissolved in pH7.4/pH2.0 buffer solution, placed in a constant temperature shaker at 37° C. and 200 rpm, and sampled at 0 h, 0.5 h and 6 h respectively. The residual contents of the compounds relative to 0 h were tested at each time point.
The release rates (%) were calculated using the following equation: Release rate (%)=[A(0h)−A(xh)]/A(0h)×100%, (x=0, 0.5, 6), A(xh) is the peak area of compounds tested by HPLC at the indicated time point.
The hydrolysis constants (Kh) were calculated using the following equation: Hydrolysis constant Kh=−ln[100%−Release rate (%)]/t Results

| SMILES | Hydrolysis constant Kh pH 2.0 | Release rate (%) pH 2.0 (6 h) [%] | Hydrolysis constant Kh pH 7.4 | Release rate (%) pH 7.4 (0.5 h) [%] | Release rate (%) pH 7.4 (6 h) [%] |
| --- | --- | --- | --- | --- | --- |
| O=C(OCn1cc(F)c(=O)[nH]c1=O)Oc1ccc(C2CCN(CC34CC5CC(CC(C5)C3)C4)CC2)cc1 [Example 8, 4-(1-(Adamantan-1-ylmethyl)piperidin-4-yl)phenyl ((5-fluoro-2,4-dioxo-3,4-dihydropyrimidin-1(2H)-yl)methyl) carbonate] | 0.041 | 22 | 11.043 | 99.6 | 99 |
| CCCCCN(CCCCC)c1ccc(OC(=O)OCn2cc(F)c(=O)[nH]c2=O)cc1 [Example 3, 4-(Dipentylamino)phenyl ((5-fluoro-2,4-dioxo-3,4-dihydropyrimidin-1(2H)-yl)methyl) carbonate] | 0.153 | 60 | 1.873 | 60.8 | 100 |
| CCc1c2c(nc3ccc(OC(=O)[C@@H]4CCCN4C(c4ccccc4)c4ccccc4)cc13)-c1cc3c(c(=O)n1C2)COC(=O)[C@]3(O)CC [Example 14, (S)-4,11-diethyl-4-hydroxy-3,14-dioxo-3,4,12,14-tetrahydro-1H-pyrano[3′,4′:6,7]indolizino[1,2-b]quinolin-9-yl benzhydrylprolinate] | 0.015 | 8.4 | 3.876 | 85.6 | 84.4 |
| CC[C@@]1(O)C(=O)OCc2c1cc1n(c2=O)Cc2cc3cc(OC(=O)OCC4CCCN4C(c4ccccc4)c4ccccc4)ccc3nc2-1 (stereo partly drawn) [Example 20, (1-Benzhydrylpyrrolidin-2-yl)methyl ((S)-4-ethyl-4-hydroxy-3,14-dioxo-3,4,12,14-tetrahydro-1H-pyrano[3′,4′:6,7]indolizino[1,2-b]quinolin-9-yl) carbonate] | 0.078 | 37.2 | >20 | 100 | 100 |
| Cn1nnc2c(C(=O)NC(=O)Oc3ccc(CC4CCN(C(c5ccccc5)c5ccccc5)CC4)cc3)ncn2c1=O [Example 21, 4-((1-Benzhydrylpiperidin-4-yl)methyl)phenyl (3-methyl-4-oxo-3,4-dihydroimidazo[5,1-d][1,2,3,5]tetrazine-8-carbonyl)carbamate] | <0.001 | 0 | 3.397 | 81.7 | 100 |
